Measurements taken from patent US5446157A, “Boron difluoride compounds useful in photodynamic therapy and production of laser light” (priority 1993, dated 1995).
Like-named read-outs stand apart in the source and are kept apart here.

Key:
[1] = Laser characteristics of pyrromethene-BF2 complexes under flashlamp excitation (Table IV); conditions: for Life: DMA/MeOH
[2] = cited from earlier work
[3] = Ref [2], cited from earlier work; for λmax: 5 × 10^-6 M in ethanol
[4] = P-BF2 dyes dispersed in acrylic co-polymer (solid-state laser)
Source text: Any laser dye of the present invention may be substituted for the dye in any of the examples of that incorporated patent. The matrix generally includes solid polymeric host laser rods prepared using bulk polymerization of acrylic acid ester comonomers.

[5] = Photostability under irradiation with 250 watt sun lamp; type: physicochemical
Experimental: In addition, experiments were conducted in order to determine the photostability of the product of Example I. A solution was prepared by mixing 0.1 g of the product with 50 ml of dichloromethane solvent. The solution was placed in a 100 ml round bottom flask and irradiated with light from a sun lamp (250 watts at a distance of approximately 8 inches from the flask). […] However, another solution was made by combining 0.1 g of product in 250 ml of CH3 OH and 10 ml of CH2 Cl2. Addition of the CH2 Cl2 was undertaken to obtain complete dissolution. The solution was placed in a […] and irradiated as described above. […] Thus, the use of different solvents will cause a variation in both the character and duration of fluorescence.
In addition, a further test was conducted in order to determine the photostability of the product. Specifically, 2.0 mg of the product in a 100 ml round bottom flask was dissolved in 50 ml of H2 O. The solution was then irradiated by light from a 250 watt sun lamp placed approximately 8 inches from the flask. UV spectral data was recorded periodically as shown below in Table III.

[6] = Fluorescence (λf, quantum yield); type: physicochemical; conditions: FIG. 2, in ethanol
Experimental: Instruments for spectroscopic measurements included: Perkin-Elmer 1600 FTIR, Varian Gernini 300 NMR, Hewlett-Packard 5985 (70 eV) GC-MS, Cary 17 (UV), and Perkin-Elmer LS-5B Luminescence spectrometer. A dye laser was constructed and operated in the non-flowing (static) mode and had no tuning capability. […] Laser energy outputs were measured with an accuracy of ±5% by a Scientech 365 power and energy meter.
Light absorption, luminescence, and laser activity properties for the dyes 7 are described in Table VI. Each recorded UV absorption was restricted to the highest wave length. Fluorescence quantum yields of the dyes were determined for ethanol solutions with excitation at 450 and 460 nm by reference to acridine orange, .PHI.0.46, in ethanol; for the dye 7p the reference was R-6G, <P 0.90. Melting points were obtained from a Mel-Temp II device and were uncorrected. The solvent for ^1 H NMR spectra was chloroform-d with tetramethylsilane as an internal standard. Elemental analyses were obtained from Midwest Micro Lab, Indianapolis, Ind. and Galbraith Laboratories, Inc., Knoxville, Tenn. Solvents were removed by rotary evaporation under reduced pressure unless indicated otherwise. Column chromatography was performed on silica gel. Molecular weights were confirmed by EI-MS for the pyrrole 4j 193 and for laser dyes 7d 346, 7e 374, 7g 374, 7i 342, 7j 314 and 7x 360. IR absorption data satisfactorily supported structure assignments for the laser dyes 7.
^[b] 2 × 10^-4 M in ethanol except where noted otherwise.

[7] = Solubility/fluorescence in various solvents (Tables I, II); type: physicochemical
Experimental: In addition, tests were conducted on the product in order to determine its solubility/fluorescence in various solvents. One property of the compositions described herein involves a variable degree of solubility/fluorescence relative to the solvents with which they are combined. Data showing a variety of different solvents combined with the product of Example I is presented below in Table I:
As in Example I, tests were conducted on the product in Example II in order to determine its fluorescence in various solvents. Data showing a variety of different solvents combined with the product of Example II is presented below in Table II: […]

[8] = Photostability in methanol under flashlamp excitation pulses
[9] = 2 × 10^-4 M in ethanol, Ref [2]

With `CCC1=C2C(C)=CC(C)=[N+]2[B-](F)(F)n2c(C)cc(C)c21` [III, 4,4-difluoro-1,3,5,7-tetramethyl-8-ethyl-4-bora-3a,4a-diaza-s-indacene] the “Eo after 1000 S at 25 J” value ([1]; footnote to Life, after 1000 S at 25 J) was ~ 80 mJ.

For `c1ccc2cc3ccccc3cc2c1` [anthracene, reference compound], the λf ([2]; literature) is listed as 400 nm.

In the case of `CC1=C(C)C(C)=[N+]2C1=C(C)c1c(C)c(C)c(C)n1[B-]2(F)F` [Compound 7b], the λf [2, 9] is listed as 546 nm, the “.PHI.f” value ([2]; Ref [2]) is listed as 0.70 and the λmax [3] is listed as 518 nm. The “log ε” value [3] was 4.67.

For `CCC1=C(C)C2=C(C)c3c(C)c(CC)c(C)n3[B-](F)(F)[N+]2=C1C` [Compound 7c, 1,3,5,7,8-pentamethyl-2,6-diethylpyrromethene-BF2 complex], the λf [2, 9] is listed as 546 nm, the “.PHI.f” value ([2]; Ref [2]) is listed as 0.83 and the “solubility in the polymer matrix” value [4] is listed as “particularly soluble”. The λmax [3] was 517 nm and the “log ε” value [3] was 4.81.

In the case of `CC1=CC(C)=[N+]2C1=C(C)c1c(C)cc(C)n1[B-]2(F)F` [Compound 7a, 4,4-difluoro-1,3,5,7,8-pentamethyl-4-bora-3a,4a-diaza-s-indacene], the Life [1] is given as ~50 kJ/L, the λf [2, 9] is given as 519 nm and the “.PHI.f” value ([2]; Ref [2]) is given as 0.99. For the same compound, the “visual change in fluorescence (photostability)” value ([5]; 0.1 g in 50 ml dichloromethane, sun lamp, 22 days) was “No visual change in fluorescence was observed”, the “fluorescence after irradiation (photostability)” value ([5]; 0.1 g in 250 ml CH3 OH and 10 ml CH2 Cl2, sun lamp, 8 days) was “no fluorescence was observed” and the “wavelength of incident light that produced the greatest fluorescence” value [6] was 500-550 nm. For the same compound, the λmax [3] was 493 nm, the “log ε” value [3] was 4.90 and the “Color of Fluorescence, Room light” value ([7]; (CF3)2 CHOH) was “green”. The “Color of Fluorescence, UV” value ([7]; (CF3)2 CHOH) was “green”, the “Color of Solution” value ([7]; (CF3)2 CHOH) was “yellow” and the Solubility ([7]; (CF3)2 CHOH) was “soluble”. For the same compound, the “Color of Fluorescence, Room light” value ([7]; CClF2 --CFCl2) was “green”, the “Color of Fluorescence, UV” value ([7]; CClF2 --CFCl2) was “green” and the “Color of Solution” value ([7]; CClF2 --CFCl2) was “yellow”. The “Color of Solution” value ([7]; CF3 CH2 OH) was “green”, the Solubility ([7]; CH2 Cl2) was “soluble” and the Solubility ([7]; H2 O) was “insoluble”.

In the case of `CCN=c1cc2oc3cc(NCC)c(C)cc3c(-c3ccccc3C(=O)OCC)c-2cc1C` [Compound R-6G, reference compound], the “fluorescence quantum yield of reference” value ([2]; reference standard) is given as 0.90 and the photostability in methanol [8] is given as 1500 pulses.

Work on `CCN=c1cc2oc3cc(NCC)c(C)cc3c(-c3ccccc3C(=O)OCC)c-2cc1C` [Rhodamine 590, reference compound] yielded a Life [1] of 15 kJ/L.
